From ChEMBL document CHEMBL1201861, “Genomics of Drug Sensitity in Cancer screening data, Wellcome Trust Sanger Institute”

Tests used:
[1] = system: Ca-Ski; test: cells; format: functional, cell-based, Homo sapiens; settings: Homo sapiens, Ca-Ski;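 further: cell viability assay measuring inhibition of Ca-Ski cell growth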
Description: SANGER: Inhibition of human Ca-Ski cell growth in a cell viability assay.

[2] = system: DMS-153; test: cells; format: functional, cell-based, Homo sapiens; settings: Homo sapiens, DMS-153
Description: SANGER: Inhibition of human DMS-153 cell growth in a cell viability assay.

[3] = system: Daudi; test: cells; format: functional, cell-based, Homo sapiens; settings: Homo sapiens, Daudi;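 further: growth inhibition of Daudi cells, read out by a viability assay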
Description: SANGER: Inhibition of human Daudi cell growth in a cell viability assay.

[4] = system: Detroit 562; test: cells; format: functional, cell-based, Homo sapiens; settings: Homo sapiens, Detroit 562;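 further: growth inhibition of human Detroit 562 cells, read out by a cell viability assay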
Description: SANGER: Inhibition of human Detroit562 cell growth in a cell viability assay.

[5] = system: EB2; test: cells; format: functional, cell-based, Homo sapiens; settings: Homo sapiens, EB2;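 further: growth inhibition of EB2 cells, read out with a cell viability assay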
Description: SANGER: Inhibition of human EB2 cell growth in a cell viability assay.

[6] = system: EFO-21; test: cells; format: functional, cell-based, Homo sapiens; settings: Homo sapiens, EFO-21;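 further: growth inhibition of EFO-21 cells measured with a viability assay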
Description: SANGER: Inhibition of human EFO-21 cell growth in a cell viability assay.

[7] = system: EHEB; test: cells; format: functional, cell-based, Homo sapiens; settings: Homo sapiens, EHEB;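 further: growth inhibition of human EHEB cells, read out with a cell viability assay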
Description: SANGER: Inhibition of human EHEB cell growth in a cell viability assay.

[8] = system: HCC1954; test: cells; format: functional, cell-based, Homo sapiens; settings: Homo sapiens, HCC1954;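 further: growth inhibition of human HCC1954 cells, read out with a cell viability assay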
Description: SANGER: Inhibition of human HCC1954 cell growth in a cell viability assay.

[9] = system: HMV-2 cell line; test: cells; format: functional, cell-based, Homo sapiens; settings: Homo sapiens, HMV-2;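 further: growth inhibition of HMV-II cells, read out with a cell viability assay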
Description: SANGER: Inhibition of human HMV-II cell growth in a cell viability assay.

[10] = system: HOP-92; test: cells; format: functional, cell-based, Homo sapiens; settings: Homo sapiens, HOP-92;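 further: cell viability readout, with IC50 reflecting inhibition of HOP-92 cell growth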
Description: SANGER: Inhibition of human HOP-92 cell growth in a cell viability assay.

[11] = system: HT1197; test: cells; format: functional, cell-based, Homo sapiens, HT-1197; settings: Homo sapiens, HT1197
Description: SANGER: Inhibition of human HT-1197 cell growth in a cell viability assay.

[12] = system: IGR-1; test: cells; format: functional, cell-based, Homo sapiens; settings: Homo sapiens, IGR-1;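 further: growth inhibition of human IGR-1 cells, read out with a cell viability assay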
Description: SANGER: Inhibition of human IGR-1 cell growth in a cell viability assay.

[13] = system: KP-N-YN; test: cells; format: functional, cell-based, Homo sapiens; settings: Homo sapiens, KP-N-YN;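 further: growth inhibition of KP-N-YN cells, read out with a cell viability assay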
Description: SANGER: Inhibition of human KP-N-YN cell growth in a cell viability assay.

[14] = system: KYSE-150 cell line; test: cells; format: functional, cell-based, Homo sapiens; settings: Homo sapiens, KYSE-150;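 further: growth inhibition of human KYSE-150 cells, read out with a cell viability assay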
Description: SANGER: Inhibition of human KYSE-150 cell growth in a cell viability assay.

[15] = system: L-540; test: cells; format: functional, cell-based, Homo sapiens; settings: Homo sapiens, L-540;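 further: growth inhibition of the human L-540 cell line, read out with a viability assay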
Description: SANGER: Inhibition of human L-540 cell growth in a cell viability assay.

[16] = system: LB647-SCLC; test: cells; format: functional, cell-based, Homo sapiens; settings: Homo sapiens, LB647-SCLC;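 further: cell growth inhibition, read out by a viability assay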
Description: SANGER: Inhibition of human LB647-SCLC cell growth in a cell viability assay.

[17] = system: LC-1F; test: cells; format: functional, cell-based, Homo sapiens; settings: Homo sapiens, LC-1F;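 further: growth inhibition of human LC-1F cells, read out with a cell viability assay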
Description: SANGER: Inhibition of human LC-1F cell growth in a cell viability assay.

[18] = system: MDA-MB-415; test: cells; format: functional, cell-based, Homo sapiens; settings: Homo sapiens, MDA-MB-415
[19] = system: MEL-JUSO; test: cells; format: functional, cell-based, Homo sapiens; settings: Homo sapiens, MEL-JUSO;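 further: growth inhibition of human MEL-JUSO cells, read out with a cell viability assay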
Description: SANGER: Inhibition of human MEL-JUSO cell growth in a cell viability assay.

[20] = system: MKN-7; test: cells; format: functional, cell-based, Homo sapiens; settings: Homo sapiens, MKN-7;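 further: growth inhibition of MKN-7 cells, read out with a cell viability assay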
Description: SANGER: Inhibition of human MKN7 cell growth in a cell viability assay.

[21] = system: NALM-6; test: cells; format: functional, cell-based, Homo sapiens; settings: Homo sapiens, NALM-6;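 further: growth inhibition of NALM-6 cells, read out with a cell viability assay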
Description: SANGER: Inhibition of human NALM-6 cell growth in a cell viability assay.

[22] = system: NCI-H1703; test: cells; format: functional, cell-based, Homo sapiens; settings: Homo sapiens, NCI-H1703;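 further: growth inhibition of NCI-H1703 cells, read out via a cell viability assay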
Description: SANGER: Inhibition of human NCI-H1703 cell growth in a cell viability assay.

[23] = system: NCI-H2030; test: cells; format: functional, cell-based, Homo sapiens; settings: Homo sapiens, NCI-H2030;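 further: growth inhibition of human NCI-H2030 cells, read out by a cell viability assay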
Description: SANGER: Inhibition of human NCI-H2030 cell growth in a cell viability assay.

[24] = system: NCI-H2170; test: cells; format: functional, cell-based, Homo sapiens; settings: Homo sapiens, NCI-H2170;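 further: cell viability assay measuring growth inhibition of human NCI-H2170 cancer cells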
Description: SANGER: Inhibition of human NCI-H2170 cell growth in a cell viability assay.

[25] = system: NCI-H2405; test: cells; format: functional, cell-based, Homo sapiens; settings: Homo sapiens, NCI-H2405;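 further: growth inhibition of the human cell line, read out with a cell viability assay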
Description: SANGER: Inhibition of human NCI-H2405 cell growth in a cell viability assay.

[26] = system: NCI-H2452; test: cells; format: functional, cell-based, Homo sapiens; settings: Homo sapiens, NCI-H2452;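 further: growth inhibition of NCI-H2452 cells, read out with a cell viability assay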
Description: SANGER: Inhibition of human NCI-H2452 cell growth in a cell viability assay.

[27] = system: NCI-H460; test: cells; format: functional, cell-based, Homo sapiens; settings: Homo sapiens, NCI-H460;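 further: cell viability assay scoring growth inhibition of human NCI-H460 cells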
Description: SANGER: Inhibition of human NCI-H460 cell growth in a cell viability assay.

[28] = system: NCI-H727; test: cells; format: functional, cell-based, Homo sapiens; settings: Homo sapiens, NCI-H727;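 further: growth inhibition of human NCI-H727 cells, read out with a cell viability assay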
Description: SANGER: Inhibition of human NCI-H727 cell growth in a cell viability assay.

[29] = system: NY; test: cells; format: functional, cell-based, Homo sapiens; settings: Homo sapiens, NY
Description: SANGER: Inhibition of human NY cell growth in a cell viability assay.

[30] = system: OAW-28; test: cells; format: functional, cell-based, Homo sapiens; settings: Homo sapiens, OAW-28;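 further: growth inhibition of OAW-28 cells, read out with a cell viability assay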
Description: SANGER: Inhibition of human OAW-28 cell growth in a cell viability assay.

[31] = system: RCM-1; test: cells; format: functional, cell-based, Homo sapiens; settings: Homo sapiens, RCM-1;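 further: growth inhibition of the RCM-1 line, determined with a cell viability readout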
Description: SANGER: Inhibition of human RCM-1 cell growth in a cell viability assay.

[32] = system: RD; test: cells; format: functional, cell-based, Homo sapiens; settings: Homo sapiens, RD
Description: SANGER: Inhibition of human RD cell growth in a cell viability assay.

[33] = system: REH; test: cells; format: functional, cell-based, Homo sapiens; settings: Homo sapiens, REH;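 further: growth inhibition of REH cells determined with a cell viability read-out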
Description: SANGER: Inhibition of human REH cell growth in a cell viability assay.

[34] = system: RERF-LC-MS; test: cells; format: functional, cell-based, Homo sapiens; settings: Homo sapiens, RERF-LC-MS;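 further: growth inhibition of human RERF-LC-MS cells, read out by a cell viability assay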
Description: SANGER: Inhibition of human RERF-LC-MS cell growth in a cell viability assay.

[35] = system: RPMI-6666; test: cells; format: functional, cell-based, Homo sapiens; settings: Homo sapiens, RPMI-6666
Description: SANGER: Inhibition of human RPMI-6666 cell growth in a cell viability assay.

[36] = system: SCC-4; test: cells; format: functional, cell-based, Homo sapiens; settings: Homo sapiens, SCC-4;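 further: growth inhibition of human SCC-4 cells, read out as cell viability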
Description: SANGER: Inhibition of human SCC-4 cell growth in a cell viability assay.

[37] = system: SCC-9; test: cells; format: functional, cell-based, Homo sapiens; settings: Homo sapiens, SCC-9;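 further: Read-out is a cell viability assay, with values giving inhibition of cell growth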
Description: SANGER: Inhibition of human SCC-9 cell growth in a cell viability assay.

[38] = system: SU-DHL-1; test: SANGER: Inhibition of human SU-DHL-1 cell growth in a cell viability assay.; format: functional, cell-based; settings: Homo sapiens, SU-DHL-1
[39] = system: SW13; test: cells; format: functional, cell-based, Homo sapiens; settings: Homo sapiens, SW13;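 further: IC50 is inhibition of SW13 cell growth, read out with a cell viability assay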
Description: SANGER: Inhibition of human SW13 cell growth in a cell viability assay.

[40] = system: SW1417; test: cells; format: functional, cell-based, Homo sapiens; settings: Homo sapiens, SW1417;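 further: growth inhibition of human SW1417 cells, read out with a cell viability assay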
Description: SANGER: Inhibition of human SW1417 cell growth in a cell viability assay.

[41] = system: SW-620; test: cells; format: functional, cell-based, Homo sapiens; settings: Homo sapiens, SW-620;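 further: growth inhibition of human SW-620 cells, measured by a cell viability assay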
Description: SANGER: Inhibition of human SW620 cell growth in a cell viability assay.

[42] = system: SAOS-2; test: cells; format: functional, cell-based, Homo sapiens; settings: Homo sapiens, SAOS-2;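 further: growth inhibition of human Saos-2 cells determined by a cell viability assay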
Description: SANGER: Inhibition of human Saos-2 cell growth in a cell viability assay.

[43] = system: ACHN; test: cells; format: functional, cell-based, Homo sapiens; settings: Homo sapiens, ACHN;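 further: cell viability read-out used to gauge how strongly growth of human ACHN cells is suppressed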
Description: SANGER: Inhibition of human ACHN cell growth in a cell viability assay.

[44] = system: BHT-101; test: cells; format: functional, cell-based, Homo sapiens; settings: Homo sapiens, BHT-101
Description: SANGER: Inhibition of human BHT-101 cell growth in a cell viability assay.

[45] = system: BPH-1; test: cells; format: functional, cell-based, Homo sapiens; settings: Homo sapiens, BPH-1;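 further: cell viability assay measuring growth inhibition of human BPH-1 cells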
Description: SANGER: Inhibition of human BPH-1 cell growth in a cell viability assay.

[46] = system: C3A; test: cells; format: functional, cell-based, Homo sapiens; settings: Homo sapiens, C3A;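 further: growth inhibition of C3A human cells, quantified with a cell viability readout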
Description: SANGER: Inhibition of human C3A cell growth in a cell viability assay.

[47] = system: CAKI-1; test: cells; format: functional, cell-based, Homo sapiens; settings: Homo sapiens, CAKI-1;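 further: growth inhibition of CAKI-1 cells, measured by a cell viability assay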
Description: SANGER: Inhibition of human CAKI-1 cell growth in a cell viability assay.

Cc1cc([N+](=O)[O-])ccc1NS(=O)(=O)c1cc(Cl)ccc1Cl
IC50 [1]: 12.1 µM
IC50 [2]: 29.1 µM
IC50 [3]: 1.25 µM
IC50 [4]: 5.32 µM
IC50 [5]: > 32 µM
IC50 [6]: 11.1 µM
IC50 [7]: 9.79 µM
IC50 [8]: 3.62 µM
IC50 [9]: 1.54 µM
IC50 [10]: 2.81 µM
IC50 [11]: 11.2 µM
IC50 [12]: 2.01 µM
IC50 [13]: 10.2 µM
IC50 [14]: 5.06 µM
IC50 [15]: 9.46 µM
IC50 [16]: > 32 µM
IC50 [17]: > 32 µM
IC50 [18]: 4.7 µM
IC50 [19]: 5.17 µM
IC50 [20]: > 32 µM
IC50 [21]: 6.28 µM
IC50 [22]: 3.29 µM
IC50 [23]: 4.43 µM
IC50 [24]: 1.44 µM
IC50 [25]: 3.96 µM
IC50 [26]: > 32 µM
IC50 [27]: 3.66 µM
IC50 [28]: 2.03 µM
IC50 [29]: 3.32 µM
IC50 [30]: 24.7 µM
IC50 [31]: 8.76 µM
IC50 [32]: 7.33 µM
IC50 [33]: 11.5 µM
IC50 [34]: 1.49 µM
IC50 [35]: 20.2 µM
IC50 [36]: 13.8 µM
IC50 [37]: > 32 µM
IC50 [38]: > 32 µM
IC50 [39]: 1.99 µM
IC50 [40]: 11.4 µM
IC50 [41]: 3.93 µM
IC50 [42]: 6.94 µM
IC50 [43]: 4.6 µM
IC50 [44]: 21.4 µM
IC50 [45]: 12.2 µM
IC50 [46]: 2.24 µM
IC50 [47]: 13.2 µM

Oc1ccc2ccccc2c1SSc1c(O)ccc2ccccc12
IC50 [1]: > 32 µM
IC50 [2]: > 32 µM
IC50 [3]: 5.68 µM
IC50 [4]: > 32 µM
IC50 [5]: 4.49 µM
IC50 [6]: > 32 µM
IC50 [7]: 8.56 µM
IC50 [8]: > 32 µM
IC50 [9]: > 32 µM
IC50 [10]: > 32 µM
IC50 [11]: 10.3 µM
IC50 [12]: > 32 µM
IC50 [13]: > 32 µM
IC50 [14]: > 32 µM
IC50 [15]: > 32 µM
IC50 [16]: 7.3 µM
IC50 [17]: > 32 µM
IC50 [18]: > 32 µM
IC50 [19]: > 32 µM
IC50 [20]: > 32 µM
IC50 [21]: 0.977 µM
IC50 [22]: > 32 µM
IC50 [23]: > 32 µM
IC50 [24]: > 32 µM
IC50 [25]: 12 µM
IC50 [26]: > 32 µM
IC50 [27]: > 32 µM
IC50 [28]: 19.7 µM
IC50 [29]: > 32 µM
IC50 [30]: > 32 µM
IC50 [31]: > 32 µM
IC50 [32]: > 32 µM
IC50 [33]: 3.37 µM
IC50 [34]: > 32 µM
IC50 [35]: > 32 µM
IC50 [36]: > 32 µM
IC50 [37]: > 32 µM
IC50 [38]: > 32 µM
IC50 [39]: > 32 µM
IC50 [40]: > 32 µM
IC50 [41]: > 32 µM
IC50 [42]: > 32 µM
IC50 [43]: > 32 µM
IC50 [44]: > 32 µM
IC50 [45]: > 32 µM
IC50 [46]: 30.3 µM
IC50 [47]: > 32 µM

C=C(c1ccc(C(=O)O)cc1)c1cc2c(cc1C)C(C)(C)CCC2(C)C [BEXAROTENE]
IC50 [1]: > 8 µM
IC50 [2]: > 8 µM
IC50 [3]: > 8 µM
IC50 [4]: > 8 µM
IC50 [5]: > 8 µM
IC50 [6]: > 8 µM
IC50 [7]: > 8 µM
IC50 [8]: > 8 µM
IC50 [9]: > 8 µM
IC50 [10]: > 8 µM
IC50 [11]: > 8 µM
IC50 [12]: > 8 µM
IC50 [14]: > 8 µM
IC50 [15]: > 8 µM
IC50 [16]: > 8 µM
IC50 [17]: > 8 µM
IC50 [18]: > 8 µM
IC50 [19]: > 8 µM
IC50 [20]: > 8 µM
IC50 [21]: > 8 µM
IC50 [22]: > 8 µM
IC50 [23]: > 8 µM
IC50 [24]: > 8 µM
IC50 [25]: > 8 µM
IC50 [26]: > 8 µM
IC50 [27]: > 8 µM
IC50 [28]: > 8 µM
IC50 [29]: > 8 µM
IC50 [30]: > 8 µM
IC50 [31]: > 8 µM
IC50 [32]: > 8 µM
IC50 [33]: > 8 µM
IC50 [34]: > 8 µM
IC50 [35]: > 8 µM
IC50 [36]: > 8 µM
IC50 [37]: > 8 µM
IC50 [38]: > 8 µM
IC50 [39]: > 8 µM
IC50 [40]: > 8 µM
IC50 [41]: > 8 µM
IC50 [42]: > 8 µM
IC50 [43]: > 8 µM
IC50 [44]: > 8 µM
IC50 [45]: > 8 µM
IC50 [46]: > 8 µM
IC50 [47]: > 8 µM
